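Dose response: 5 concentrations. Exposure: 48 h. Format: 96-well plates. Endpoint: linear interpolation; highest concentration if not reached. GI50 = concentration required for 50% inhibition of growth.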 The source made the active and inactive calls. Cut-off read from the data, not from the text of the source: active = GI50 up to about 1.1 µM and inactive = higher.
Key:
Test in all cases: DTP human tumour cell line panel, 48 h
SNB-75 = test system: SNB-75
KM12 = test system: KM12
OVCAR-8 = test system: OVCAR-8
UACC-62 = test system: UACC-62
Hs-578T = test system: Hs-578T
CAKI-1 = test system: CAKI-1
UO-31 = test system: UO-31
SK-MEL-2 = test system: SK-MEL-2
ACHN = test system: ACHN
HT-29 = test system: HT-29
NCI/ADR-RES = test system: NCI/ADR-RES
OVCAR-4 = test system: OVCAR-4
786-0 = test system: 786-0
UACC-257 = test system: UACC-257
A498 = test system: A498
SR = test system: SR
PC-3 = test system: PC-3
HCT-116 = test system: HCT-116
RPMI-8226 = test system: RPMI-8226

Measured: GI50

NCCSCc1ccccc1Cl
inactive: SNB-75 37.5 µM | KM12 47.3 µM | OVCAR-8 43.3 µM | UACC-62 53.6 µM | Hs-578T 73.5 µM | CAKI-1 > 100 µM | UO-31 > 100 µM | SK-MEL-2 30.6 µM | ACHN > 100 µM | HT-29 36.1 µM | NCI/ADR-RES > 100 µM | OVCAR-4 64.9 µM | 786-0 42.7 µM | UACC-257 23.3 µM | A498 27 µM | SR 18.6 µM | PC-3 30.3 µM | HCT-116 46.9 µM

c1ccc2nc3c(nc2c1)sc1nc2ccccc2n13
inactive: SNB-75 > 100 µM | KM12 > 100 µM | OVCAR-8 > 100 µM | UACC-62 > 100 µM | Hs-578T > 100 µM | CAKI-1 > 100 µM | UO-31 > 100 µM | ACHN 92 µM | HT-29 > 100 µM | NCI/ADR-RES > 100 µM | RPMI-8226 > 100 µM | 786-0 46.1 µM | UACC-257 > 100 µM | A498 26.1 µM | SR > 100 µM | PC-3 > 100 µM | HCT-116 > 100 µM

COc1ccc2cc(-c3ccc(OC)c(OC)c3)c(=O)oc2c1
inactive: KM12 > 100 µM | OVCAR-8 > 100 µM | UACC-62 > 100 µM | Hs-578T 29.3 µM | CAKI-1 > 100 µM | UO-31 > 100 µM | SK-MEL-2 > 100 µM | ACHN > 100 µM | HT-29 > 100 µM | NCI/ADR-RES > 100 µM | OVCAR-4 > 100 µM | RPMI-8226 > 100 µM | 786-0 52 µM | UACC-257 > 100 µM | A498 96.8 µM | SR > 100 µM | PC-3 > 100 µM | HCT-116 > 100 µM

O=C(CCCN1CCC2(CC1)/C(=N/C1CCCCC1)NC(=O)N2c1ccccc1)c1ccc(F)cc1
inactive: SNB-75 17.2 µM | KM12 19.8 µM | OVCAR-8 28.4 µM | UACC-62 22.3 µM | Hs-578T 33.4 µM | CAKI-1 > 100 µM | SK-MEL-2 17.7 µM | ACHN 31.7 µM | HT-29 17.9 µM | NCI/ADR-RES 19.2 µM | OVCAR-4 31.7 µM | RPMI-8226 20.9 µM | 786-0 20.8 µM | UACC-257 21.5 µM | A498 15.2 µM | SR 16.7 µM | PC-3 21.6 µM | HCT-116 21.3 µM

COc1cc2oc(=O)cc(C)c2c(OC)c1OC(C)=O
inactive: SNB-75 > 100 µM | KM12 > 100 µM | OVCAR-8 > 100 µM | UACC-62 > 100 µM | Hs-578T > 100 µM | UO-31 > 100 µM | SK-MEL-2 > 100 µM | ACHN > 100 µM | HT-29 > 100 µM | NCI/ADR-RES > 100 µM | OVCAR-4 > 100 µM | RPMI-8226 > 100 µM | 786-0 > 100 µM | UACC-257 > 100 µM | A498 > 100 µM | SR > 100 µM | PC-3 > 100 µM | HCT-116 > 100 µM

CCN1C(=O)/C(=C2\SC(c3ccccc3)(c3ccccc3)c3ccccc32)SC1=S
inactive: SNB-75 53.1 µM | KM12 > 100 µM | OVCAR-8 75.5 µM | UACC-62 > 100 µM | Hs-578T 32.2 µM | UO-31 > 100 µM | ACHN > 100 µM | HT-29 > 100 µM | NCI/ADR-RES > 100 µM | OVCAR-4 63.4 µM | RPMI-8226 > 100 µM | 786-0 43.3 µM | UACC-257 > 100 µM | A498 46 µM | SR 18.6 µM | PC-3 74.5 µM | HCT-116 47 µM

COC(=O)c1c(O)ccc2[nH]c3c(O)c4ccccc4cc3c12
inactive: KM12 16 µM | OVCAR-8 20.2 µM | UACC-62 61.4 µM | Hs-578T 23.7 µM | CAKI-1 18.5 µM | UO-31 26.8 µM | SK-MEL-2 32.4 µM | ACHN 27.9 µM | HT-29 33.3 µM | NCI/ADR-RES 29.9 µM | OVCAR-4 25.5 µM | RPMI-8226 17.4 µM | 786-0 32 µM | UACC-257 34.1 µM | A498 41.4 µM | SR 43.5 µM | PC-3 30.4 µM | HCT-116 16.7 µM

CCOC(=O)C1(Cc2ccccc2)Cc2cc3c(cc2C1=O)CCC3 (stereo not given)
inactive: SNB-75 > 100 µM | KM12 > 100 µM | OVCAR-8 > 100 µM | UACC-62 > 100 µM | Hs-578T > 100 µM | UO-31 > 100 µM | SK-MEL-2 > 100 µM | ACHN > 100 µM | HT-29 > 100 µM | NCI/ADR-RES > 100 µM | OVCAR-4 > 100 µM | RPMI-8226 > 100 µM | 786-0 > 100 µM | UACC-257 > 100 µM | A498 > 100 µM | SR > 100 µM | PC-3 > 100 µM | HCT-116 > 100 µM

O=C(N/N=C\c1cccc2ccccc12)Nc1cccc2ccccc12
inactive: SNB-75 6.61 µM | KM12 11 µM | OVCAR-8 32.4 µM | Hs-578T 43 µM | CAKI-1 25.7 µM | UO-31 76.9 µM | SK-MEL-2 28.8 µM | ACHN 23.2 µM | HT-29 4.17 µM | NCI/ADR-RES > 100 µM | OVCAR-4 > 10 µM | 786-0 11.7 µM | UACC-257 27.3 µM | A498 15.7 µM | SR 3.29 µM | PC-3 26.9 µM | HCT-116 13.9 µM

COc1ccc2c(c1)C(=O)C1(C2)[C@H](c2ccccc2)C2C(=O)c3cc(OC)ccc3C2[C@H]1c1ccccc1 (stereo not given in full)
inactive: SNB-75 92.3 µM | KM12 > 100 µM | OVCAR-8 > 100 µM | UACC-62 > 100 µM | Hs-578T 74.6 µM | CAKI-1 1.75 µM | UO-31 > 100 µM | ACHN > 100 µM | HT-29 > 100 µM | NCI/ADR-RES > 100 µM | OVCAR-4 > 100 µM | RPMI-8226 43.7 µM | 786-0 > 100 µM | UACC-257 > 100 µM | A498 > 100 µM | SR > 100 µM | PC-3 16.6 µM | HCT-116 > 100 µM

CCN(CC)CCCOc1cc2c(cc1OC)C(=O)N1CCC[C@H]1C=N2
inactive: KM12 20 µM | OVCAR-8 40.8 µM | UACC-62 21.4 µM | Hs-578T 71.1 µM | CAKI-1 18.2 µM | UO-31 39.9 µM | SK-MEL-2 46 µM | ACHN 29.6 µM | HT-29 17.8 µM | NCI/ADR-RES > 100 µM | OVCAR-4 8.38 µM | RPMI-8226 21.1 µM | 786-0 30.5 µM | UACC-257 53.7 µM | A498 29.6 µM | SR 29.2 µM | PC-3 42.5 µM | HCT-116 32.4 µM

From ChEMBL document CHEMBL1201862, “PubChem BioAssay data set” (2004)
